According to ChEMBL document CHEMBL5715954, “Silencing c-Myc translation as a therapeutic strategy through targeting PI3Kδ and CK1ε in hematological malignancies” (Blood, 2017):

Experiments:
Set-up in all cases: scale not given: the % may be the effect or the level left
[1] = molecular target: Tyrosine-protein kinase receptor UFO (Homo sapiens) (UniProt P30530); experiment: Inhibition of human AXL assessed as enzyme activity at 1 uM using poly[Glu:Tyr] (4:1) as substrate preincubated for 20 mins followed by [gamma-33P]-ATP addition and measured after 120 mins by radiometric Hot-SpotSM Kinase assay relative to control
Sequence of Tyrosine-protein kinase receptor UFO (Homo sapiens) (P30530 whole entry): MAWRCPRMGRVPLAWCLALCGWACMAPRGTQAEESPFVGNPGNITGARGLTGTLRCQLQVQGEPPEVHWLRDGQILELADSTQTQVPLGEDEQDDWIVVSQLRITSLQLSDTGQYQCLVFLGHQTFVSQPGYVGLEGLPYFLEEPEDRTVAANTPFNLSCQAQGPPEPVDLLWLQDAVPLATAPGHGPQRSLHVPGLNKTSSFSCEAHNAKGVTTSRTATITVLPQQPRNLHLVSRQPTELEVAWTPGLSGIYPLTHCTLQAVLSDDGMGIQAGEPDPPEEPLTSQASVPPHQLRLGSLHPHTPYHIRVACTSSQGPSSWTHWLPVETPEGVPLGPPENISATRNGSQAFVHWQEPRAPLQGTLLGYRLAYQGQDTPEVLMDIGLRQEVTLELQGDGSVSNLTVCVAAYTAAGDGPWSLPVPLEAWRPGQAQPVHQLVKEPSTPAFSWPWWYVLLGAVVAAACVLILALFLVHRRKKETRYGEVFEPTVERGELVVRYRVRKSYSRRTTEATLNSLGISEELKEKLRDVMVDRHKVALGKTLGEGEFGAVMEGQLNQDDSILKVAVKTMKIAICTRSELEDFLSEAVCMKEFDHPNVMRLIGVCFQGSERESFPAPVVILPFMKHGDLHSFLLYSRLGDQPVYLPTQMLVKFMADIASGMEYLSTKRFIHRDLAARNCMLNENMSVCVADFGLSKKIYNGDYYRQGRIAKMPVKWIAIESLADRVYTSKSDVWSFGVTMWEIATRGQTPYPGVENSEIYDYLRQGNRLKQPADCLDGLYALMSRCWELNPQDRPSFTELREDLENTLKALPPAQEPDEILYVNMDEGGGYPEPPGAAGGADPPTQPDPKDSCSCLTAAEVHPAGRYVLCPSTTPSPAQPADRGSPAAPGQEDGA

[2] = molecular target: T1, Ephrin type-A receptor 6 (Homo sapiens) (UniProt Q9UF33); experiment: Inhibition of human EPHA6 assessed as enzyme activity at 1 uM using poly[Glu:Tyr] (4:1) as substrate preincubated for 20 mins followed by [gamma-33P]-ATP addition and measured after 120 mins by radiometric Hot-SpotSM Kinase assay relative to control
T1 sequence (whole entry): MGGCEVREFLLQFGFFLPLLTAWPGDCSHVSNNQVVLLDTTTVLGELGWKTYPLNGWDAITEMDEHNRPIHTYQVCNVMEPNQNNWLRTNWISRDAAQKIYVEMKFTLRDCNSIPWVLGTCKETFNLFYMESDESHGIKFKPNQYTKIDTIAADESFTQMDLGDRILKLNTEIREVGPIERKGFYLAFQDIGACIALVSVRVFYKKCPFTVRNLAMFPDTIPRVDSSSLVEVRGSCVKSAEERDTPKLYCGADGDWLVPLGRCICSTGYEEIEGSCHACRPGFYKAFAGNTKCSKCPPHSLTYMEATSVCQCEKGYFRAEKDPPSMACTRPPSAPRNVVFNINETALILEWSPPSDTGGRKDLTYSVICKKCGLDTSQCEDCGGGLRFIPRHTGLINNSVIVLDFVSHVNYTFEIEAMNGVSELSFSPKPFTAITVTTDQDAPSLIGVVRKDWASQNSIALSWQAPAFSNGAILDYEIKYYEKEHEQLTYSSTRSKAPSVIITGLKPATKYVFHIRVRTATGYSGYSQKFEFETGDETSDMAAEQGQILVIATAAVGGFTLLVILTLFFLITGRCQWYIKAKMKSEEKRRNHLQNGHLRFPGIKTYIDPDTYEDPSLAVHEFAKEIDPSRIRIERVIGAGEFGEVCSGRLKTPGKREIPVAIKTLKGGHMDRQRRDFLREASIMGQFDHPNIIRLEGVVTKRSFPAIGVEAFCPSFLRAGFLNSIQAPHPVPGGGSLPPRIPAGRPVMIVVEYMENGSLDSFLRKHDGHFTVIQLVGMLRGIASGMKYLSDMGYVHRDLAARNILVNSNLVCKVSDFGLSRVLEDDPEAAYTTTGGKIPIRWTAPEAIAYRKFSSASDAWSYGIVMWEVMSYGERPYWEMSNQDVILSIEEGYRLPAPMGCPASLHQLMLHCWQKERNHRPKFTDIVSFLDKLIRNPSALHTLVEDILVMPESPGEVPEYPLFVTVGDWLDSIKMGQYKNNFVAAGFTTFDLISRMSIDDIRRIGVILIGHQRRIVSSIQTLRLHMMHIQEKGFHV

[3] = molecular target: Mitogen-activated protein kinase kinase kinase kinase 1 (Homo sapiens) (UniProt Q92918); experiment: Inhibition of human HPK1 assessed as enzyme activity at 1 uM using myelin basic protein as substrate preincubated for 20 mins followed by [gamma-33P]-ATP addition and measured after 120 mins by radiometric Hot-SpotSM Kinase assay relative to control
Sequence of Mitogen-activated protein kinase kinase kinase kinase 1 (Homo sapiens) (Q92918 whole entry, looked up): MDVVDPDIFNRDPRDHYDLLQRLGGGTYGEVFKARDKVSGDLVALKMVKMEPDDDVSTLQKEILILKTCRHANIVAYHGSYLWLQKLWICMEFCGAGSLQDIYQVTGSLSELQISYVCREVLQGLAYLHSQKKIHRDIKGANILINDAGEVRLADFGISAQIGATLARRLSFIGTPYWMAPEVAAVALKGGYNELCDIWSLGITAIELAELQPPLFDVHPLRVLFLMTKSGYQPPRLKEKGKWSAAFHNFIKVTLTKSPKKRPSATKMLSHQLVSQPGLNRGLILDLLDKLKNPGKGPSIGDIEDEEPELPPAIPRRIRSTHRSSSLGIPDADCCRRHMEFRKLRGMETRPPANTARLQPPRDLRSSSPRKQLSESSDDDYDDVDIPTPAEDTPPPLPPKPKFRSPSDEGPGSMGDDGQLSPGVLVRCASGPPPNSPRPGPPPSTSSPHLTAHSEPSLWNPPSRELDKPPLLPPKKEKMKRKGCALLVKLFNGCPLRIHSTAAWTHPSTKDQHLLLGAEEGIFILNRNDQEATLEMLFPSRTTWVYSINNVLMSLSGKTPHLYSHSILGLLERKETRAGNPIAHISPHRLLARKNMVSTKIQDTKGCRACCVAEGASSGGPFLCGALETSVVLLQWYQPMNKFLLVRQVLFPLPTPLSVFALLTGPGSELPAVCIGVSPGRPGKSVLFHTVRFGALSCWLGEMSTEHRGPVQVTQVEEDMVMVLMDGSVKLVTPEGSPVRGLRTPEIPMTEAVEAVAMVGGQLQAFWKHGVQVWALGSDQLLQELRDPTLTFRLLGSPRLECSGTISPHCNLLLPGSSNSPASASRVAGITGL

[4] = molecular target: T2, Serine/threonine-protein kinase ICK (Homo sapiens) (UniProt Q9UPZ9); experiment: Inhibition of human LCK2 assessed as enzyme activity at 1 uM using myelin basic protein as substrate preincubated for 20 mins followed by [gamma-33P]-ATP addition and measured after 120 mins by radiometric Hot-SpotSM Kinase assay relative to control
T2 sequence (whole entry): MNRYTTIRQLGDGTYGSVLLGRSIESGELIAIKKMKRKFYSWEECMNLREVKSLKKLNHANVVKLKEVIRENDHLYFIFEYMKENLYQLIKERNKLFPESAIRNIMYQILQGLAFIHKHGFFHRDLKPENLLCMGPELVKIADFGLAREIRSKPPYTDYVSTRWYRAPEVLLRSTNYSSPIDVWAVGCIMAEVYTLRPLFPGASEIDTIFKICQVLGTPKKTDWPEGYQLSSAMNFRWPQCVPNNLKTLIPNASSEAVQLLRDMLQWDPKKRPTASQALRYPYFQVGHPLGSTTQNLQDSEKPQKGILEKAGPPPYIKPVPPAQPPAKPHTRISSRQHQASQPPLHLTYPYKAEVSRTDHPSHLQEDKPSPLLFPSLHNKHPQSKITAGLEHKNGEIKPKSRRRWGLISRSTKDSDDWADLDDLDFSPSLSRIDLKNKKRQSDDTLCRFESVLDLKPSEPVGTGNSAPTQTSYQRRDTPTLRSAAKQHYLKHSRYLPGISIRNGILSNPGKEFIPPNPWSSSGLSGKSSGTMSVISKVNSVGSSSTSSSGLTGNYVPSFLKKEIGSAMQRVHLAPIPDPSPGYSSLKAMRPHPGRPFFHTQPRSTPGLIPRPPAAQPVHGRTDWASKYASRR

[5] = molecular target: T3, cGMP-dependent protein kinase 1 (Homo sapiens) (UniProt Q13976); experiment: Inhibition of human PKG1b assessed as enzyme activity at 1 uM using LRRASLG as substrate preincubated for 20 mins followed by [gamma-33P]-ATP addition and measured after 120 mins by radiometric Hot-SpotSM Kinase assay relative to control
T3 sequence (whole entry): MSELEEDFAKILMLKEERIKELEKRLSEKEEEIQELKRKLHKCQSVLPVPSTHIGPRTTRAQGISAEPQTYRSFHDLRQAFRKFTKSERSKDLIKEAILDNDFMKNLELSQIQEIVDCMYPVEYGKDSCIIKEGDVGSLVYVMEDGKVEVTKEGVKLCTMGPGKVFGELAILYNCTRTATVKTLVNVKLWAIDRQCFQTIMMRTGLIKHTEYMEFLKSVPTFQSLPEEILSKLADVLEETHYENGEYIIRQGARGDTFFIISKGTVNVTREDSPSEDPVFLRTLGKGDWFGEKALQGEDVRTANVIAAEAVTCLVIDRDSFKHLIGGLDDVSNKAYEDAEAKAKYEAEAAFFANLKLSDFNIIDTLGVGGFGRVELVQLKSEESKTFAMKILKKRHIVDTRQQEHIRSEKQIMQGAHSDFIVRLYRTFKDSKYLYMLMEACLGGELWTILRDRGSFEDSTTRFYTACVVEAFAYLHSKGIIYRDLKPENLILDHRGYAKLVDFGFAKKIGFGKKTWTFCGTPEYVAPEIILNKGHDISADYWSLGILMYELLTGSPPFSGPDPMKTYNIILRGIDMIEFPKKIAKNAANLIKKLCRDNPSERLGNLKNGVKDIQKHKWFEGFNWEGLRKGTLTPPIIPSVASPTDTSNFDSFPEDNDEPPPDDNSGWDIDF

[6] = molecular target: NT-3 growth factor receptor (Homo sapiens) (UniProt Q16288); experiment: Inhibition of human TRKC assessed as enzyme activity at 1 uM using poly[Glu:Tyr] (4:1) as substrate preincubated for 20 mins followed by [gamma-33P]-ATP addition and measured after 120 mins by radiometric Hot-SpotSM Kinase assay relative to control
Sequence of NT-3 growth factor receptor (Homo sapiens) (Q16288 32-839 limits assumed): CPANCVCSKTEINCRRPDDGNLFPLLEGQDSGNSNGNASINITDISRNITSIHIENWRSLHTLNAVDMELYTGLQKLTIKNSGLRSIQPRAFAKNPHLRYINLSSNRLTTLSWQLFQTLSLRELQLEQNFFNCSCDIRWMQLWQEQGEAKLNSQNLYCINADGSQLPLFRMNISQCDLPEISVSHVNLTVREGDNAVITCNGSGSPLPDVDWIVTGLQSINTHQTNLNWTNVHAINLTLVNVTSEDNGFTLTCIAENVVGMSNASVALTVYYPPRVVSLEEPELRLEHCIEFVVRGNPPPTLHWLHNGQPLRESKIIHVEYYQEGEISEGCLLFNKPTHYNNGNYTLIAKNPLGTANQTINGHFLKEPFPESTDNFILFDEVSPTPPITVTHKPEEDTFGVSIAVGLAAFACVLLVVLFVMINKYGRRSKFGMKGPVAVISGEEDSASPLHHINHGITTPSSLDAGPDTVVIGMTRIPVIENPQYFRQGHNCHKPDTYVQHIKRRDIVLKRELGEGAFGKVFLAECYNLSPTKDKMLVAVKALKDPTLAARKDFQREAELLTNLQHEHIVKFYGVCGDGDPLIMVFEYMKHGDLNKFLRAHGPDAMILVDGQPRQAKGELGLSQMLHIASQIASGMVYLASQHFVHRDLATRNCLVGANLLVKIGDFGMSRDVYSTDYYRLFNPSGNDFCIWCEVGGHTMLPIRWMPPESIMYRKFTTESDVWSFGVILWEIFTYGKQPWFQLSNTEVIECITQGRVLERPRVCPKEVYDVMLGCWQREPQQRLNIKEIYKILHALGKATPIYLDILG

| SMILES | Activity [1] | Activity [2] | Activity [3] | Activity [4] | Activity [5] | Activity [6] |
| --- | --- | --- | --- | --- | --- | --- |
| CC[C@H](Nc1ncnc2[nH]cnc12)c1nc2cccc(F)c2c(=O)n1-c1ccccc1 | 93.5% | 87.7% | 98% | 100% | 99.8% | 89.6% |
| C[C@H](Nc1ncnc2nc[nH]c12)c1cc2cccc(Cl)c2c(=O)n1-c1ccccc1 | 93.9% | 86.9% | 104% | 91.6% | 95.9% | 91% |
| CC(C)Oc1ccc(-c2nn([C@@H](C)c3oc4ccc(F)cc4c(=O)c3-c3cccc(F)c3)c3ncnc(N)c23)cc1F [UMBRALISIB] | 91.2% | 81.3% | 105% | 101% | 90.3% | 88.7% |
